According to patent publication US11020457B2, “Compositions and methods for protecting the kidney from ischemia reperfusion injury” (University of Virginia Patent Foundation, priority 2013, dated 2021):
Entries after “also recorded” stand apart in the source; their conditions may differ.

Experiments:
splenocytes from WT mice = assay: Iron stimulation of splenocytes, IL-6 secretion by ELISA; assay type: cell-based; conditions: iron treatment for 4 hours, vs untreated and hepcidin-treated cells, p<0.005; FIG. 10c
Method: Splenocytes were harvested from 10-week-old B6 male mice. After excising the spleen, red blood cells were lysed and the remaining splenocytes were seeded at 1×10^6 cells/mL in 24-well tissue culture plates and cultured under 5% CO2 at 37° C. for 24 hours. The culture medium consisted of RPMI 1640 medium supplemented with 10% fetal calf serum (FCS), 100 U/mL penicillin, 100 μg/mL streptomycin, 1% non-essential amino acids (Gibco/Life Technologies, Foster, Calif., USA), 2 mM L-glutamine (Sigma), and 50/μM 2-mercaptoethanol. After resting for 24 hours, the cells were treated with 10 μM […] (FAC), 1 μg/mL hepcidin or saline for 4 hours. The cell culture supernatants were harvested and quantified for the levels of IL-6 by ELISA (eBioscience).

animals models of AKI = conditions: cited from earlier work; for renal IRI severity: literature (37-39; 7, 37)
hepcidin [1] = conditions: hepcidin inducers; cited from earlier work
rat model of AI = conditions: AI induced with PG-APS; cited from earlier work
hepcidin [2] = conditions: within 2-5 days after the start of the treatment; cited from earlier work

## ferrous sulfate [reference compound]
Splenocytes from WT mice
  IL-6 secretion into supernatants: significantly increased splenocytes IL-6 secretion

## superoxide dismutase
Animals models of AKI
  renal IRI severity: attenuate IRI

## O=C(CCCCCCC(=O)Nc1ccccc1)NO [vorinostat]
Hepcidin [1]
  active concentration, fold below that required for genistein's effect: 10 fold

## c1ccc2c(-c3cnn4cc(-c5ccc(N6CCNCC6)cc5)cnc34)ccnc2c1 [LDN-193189]
Rat model of AI
  anemia of inflammation (AI): effectively reversed anemia

## CC(=O)N(O)CCCCCNC(=O)CCC(=O)N(O)CCCCCNC(=O)CCC(=O)N(O)CCCCCN [desferrioxamine]
Animals models of AKI; iron chelation
  protection in animal models of AKI: induces protection in diverse animals models of AKI
Animals models of AKI
  renal IRI severity: attenuate IRI; also recorded: provide protection and significantly improve its severity and outcomes

## CC(C)Oc1ccc2c(=O)c(-c3ccccc3)coc2c1 [ipriflavone]
Hepcidin [1]
  active concentration, fold below that required for genistein's effect: 10 fold

## low-molecular-weight heparin
Hepcidin [2]
  decrease of serum hepcidin concentrations: ~80%
